Assay results as given in US7645753B2, “Benzothiazole, thiazolopyridine, benzooxazole and oxazolopyridine derivatives” (Hoffmann-La Roche Inc., priority 2005, dated 2010).

Target: T1, human subtype 5 somatostatin receptor (Homo sapiens, UniProt P35346)
T1 construct: host or cells: CHO cells, stably transfected; membranes prepared by sonication and fractionating centrifugation
Experiment: Radioligand binding to membranes of CHO cells expressing human SSTR5 (125I-labeled 11-Tyr somatostatin-14 tracer)
Conditions: Ki calculated from IC50 by Cheng-Prussoff equation
Experimental: A CHO cell line stably transfected with a plasmid encoding the human subtype 5 somatostatin receptor (GenBank accession number D16827) was obtained from Euroscreen. Cells were cultured and used for binding and functional assays.
Membranes of these cells were prepared by sonication in the presence of protease inhibitors and subsequent fractionating centrifugation. The protein concentration in the membrane preparation was determined using a commercial kit (BCA kit, Pierce, USA). Membranes were stored at −80° C. until use. After thawing, membranes were diluted in assay buffer (50 mM Tris-HCl at pH 7.4, 5 mM MgCl2 and 0.20% BSA) and subjected to dounce homogenization.
For binding studies, 0.1 mL membrane suspension, corresponding to app. 6×10^−15 mol receptor, was incubated for 1 h at room temperature with 0.05 nM ^125I-labeled tracer (11-Tyr somatostatin-14, Perkin-Elmer) and either test compounds in varying concentrations or, for the determination of non-specific binding, 0.001 mM non-labeled somatostatin-14. The incubation was stopped by filtration through GF/B glassfiber filters and washing with ice-cold wash buffer (50 mM Tris-HCl at pH 7.4). The bound radioactivity was measured after application of a scintillation cocktail (Microscint 40) and expressed as disintegrations per minute (dpm).
The receptor concentration was determined in a prior saturation experiment where a fixed, arbitrary amount of membranes was incubated with a concentration range of radio-labeled tracer. This allows estimating the total number of specific binding sites per amount of protein (i.e., Bmax), typically between 1 and 5 pmol/mg.
The concentration of the test compound required to result in half maximal inhibition of binding of the radio-labeled tracer (IC50) was estimated from a concentration-versus-dpm graph. The binding affinity (Ki) was calculated from the IC50 by applying the Cheng-Prussoff equation for single binding sites.

T1 sequence (P35346 whole entry): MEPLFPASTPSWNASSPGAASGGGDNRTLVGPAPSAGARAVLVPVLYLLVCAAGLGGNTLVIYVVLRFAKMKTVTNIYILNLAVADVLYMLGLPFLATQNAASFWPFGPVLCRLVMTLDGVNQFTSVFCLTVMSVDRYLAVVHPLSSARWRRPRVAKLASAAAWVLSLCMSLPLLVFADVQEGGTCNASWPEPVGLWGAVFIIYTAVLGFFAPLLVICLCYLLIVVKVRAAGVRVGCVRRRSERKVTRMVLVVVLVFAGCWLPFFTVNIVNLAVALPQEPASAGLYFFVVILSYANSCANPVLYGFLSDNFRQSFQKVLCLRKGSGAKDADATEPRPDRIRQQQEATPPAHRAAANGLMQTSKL

| SMILES | Ki |
| --- | --- |
| CCOc1cc(CN2CCC(Nc3nc4ccc(Cl)cc4o3)CC2)cc(OCC)c1-n1cccc1 [Example 94, (6-chloro-benzooxazol-2-yl)-[1-(3,5-diethoxy-4-pyrrol-1-yl-benzyl)-piperidin-4-yl]-amine] | 59 nM |
| CCOc1cc(CN2CCC(Nc3nc4cc(S(N)(=O)=O)ccc4o3)CC2)cc(OCC)c1-n1cccc1 [Example 129, 2-[1-(3,5-diethoxy-4-pyrrol-1-yl-benzyl)-piperidin-4-ylamino]-benzooxazole-5-sulfonic acid amide] | 4.1 nM |
| CCOc1cc(CN2CCC(Nc3nc4cc(NC(=O)CC)ccc4o3)CC2)ccc1OC [Example 243, N-{2-[1-(3-ethoxy-4-methoxy-benzyl)-piperidin-4-ylamino]-benzooxazol-5-yl}-propionamide] | 293 nM |
